Measurements from US20040186046A1, “Treatment of type 1 diabetes with PDE5 inhibitors” (Pfizer Inc, priority 2003, published 2004).

Columns and labels:
[1] = Sildenafil mean plasma concentration (free drug) in normal and STZ-treated rats on chronic sc dosing; type: in vivo, rat; conditions: chronic sildenafil 3 × 20 mg/kg sc/day
Method: (§1) To induce Type 1 diabetes, rats of 200-250 g were injected intra-peritoneally with streptozotocin (60 mg/kg) in citrate phosphate buffer, pH4.5 or the equivalent volume of vehicle. The development of non-keturonic hyperglycaemic diabetes was induced within 48 h and was confirmed by determining blood glucose levels in blood obtained from the tail vein of the rats at 48 h after STZ administration and monitored […] thereafter.
Throughout this period blood samples were taken from the tail vein on a weekly basis. These samples were taken prior to dosing so that trough concentrations could be estimated (ie at 6-8 h post dose). A further sample was taken at week 8 ([…] post dosing).

U397 cells = conditions: statement quoted from U.S. Pat. No. 6,479,493, column 38; cited from earlier work
[2] = system: control and STZ-treated rats; experiment: Plasma glucose in control and STZ-treated rats (model of Type 1 diabetes) on chronic sildenafil; type: in vivo, rat; conditions: for minimum glucose levels (Table 3), Change from vehicle / minimum glucose levels (Table 3), Sildenafil group / minimum plasma glucose (Table 2), Change from vehicle / minimum plasma glucose (Table 2), Sildenafil group: sildenafil 60 mg/kg/day sc; for minimum plasma glucose (Table 2), Change from vehicle / minimum plasma glucose (Table 2), Sildenafil group: average, week 2 to week 6; for statistical significance (p) of effect of sildenafil on minimum glucose levels / statistical significance (p) of effect of Sildenafil on average glucose: vs vehicle
Method: STZ is a nitrosamine which is toxic to the pancreatic β-cells and STZ-treated rats have been used as an experimental model for Type 1 diabetes (see e.g. Ari et al, Clin Sci (Colch) 1999:96:365).
as §1
The Sildenafil-treated rats were divided in two group—normal and STZ-treated. In addition, there were two non-sildenafil groups—again normal and STZ treated. Throughout this period blood samples were taken from the tail vein on a weekly basis. These samples were taken prior to dosing so that trough concentrations could be estimated (ie at 6-8 h post dose). A further sample was taken at week 8 ([…] post dosing). Plasma from these blood samples, from all rats treated with sildenafil, and some controls, were assayed for sildenafil (and its n-desmethyl metabolite).
The plasma from these samples was stored at −20° C. and analysed for levels of glucose using the Roche/Hitachi 912 Clinical Chemistry Analyzer (Roche Diagnostics Corp., Indianapolis, Ind.) with kits supplied by Roche. All assays were conducted according to instructions provided by the manufacturers.

Sildenafil Mean plasma concentration (free drug) ([1]; Normal rats, 2 weeks (6-8 h post dose), n = 12): 36 nM
Sildenafil Mean plasma concentration (free drug) ([1]; Normal rats, 4 weeks (6-8 h post dose), n = 12): 45 nM
Sildenafil Mean plasma concentration (free drug) ([1]; Normal rats, 6 weeks (6-8 h post dose), n = 12): 45 nM
Sildenafil Mean plasma concentration (free drug) ([1]; Normal rats, 8 weeks (32-35 h post dose), n = 12): 28 nM
Sildenafil Mean plasma concentration (free drug) ([1]; STZ rats, 2 weeks (6-8 h post dose), N = 6-10): 79 nM
Sildenafil Mean plasma concentration (free drug) ([1]; STZ rats, 4 weeks (6-8 h post dose), N = 6-10): 41 nM
Sildenafil Mean plasma concentration (free drug) ([1]; STZ rats, 6 weeks (6-8 h post dose), N = 6-10): 57 nM
Sildenafil Mean plasma concentration (free drug) ([1]; STZ rats, 8 weeks (32-35 h post dose), N = 6-10): 11 nM
Compound: CCCc1nn(C)c2c(=O)[nH]c(-c3cc(S(=O)(=O)N4CCN(C)CC4)ccc3OCC)nc12 [Sildenafil, 5-[2-ethoxy-5-(4-methyl-1-piperazinylsulphonyl)phenyl]-1-methyl-3-n-propyl-1,6-dihydro-7H-pyrazolo[4,3-d]pyrimidin-7-one]
induction of apoptosis (U397 cells): does not induce apoptosis
minimum glucose levels (Table 3), Change from vehicle ([2]; Control rats): -13 mg/dL
minimum glucose levels (Table 3), Sildenafil group ([2]; Control rats): 176 mg/dL
minimum plasma glucose (Table 2), Change from vehicle ([2]; Control rats): -25 mg/dL
minimum plasma glucose (Table 2), Sildenafil group ([2]; Control rats): 190 mg/dL
statistical significance (p) of effect of sildenafil on minimum glucose levels ([2]; STZ-treated animals, statistically significant effect): < 0.01
minimum glucose levels (Table 3), Change from vehicle ([2]; STZ-treated rats): -269 mg/dL
minimum glucose levels (Table 3), Sildenafil group ([2]; STZ-treated rats): 462 mg/dL
minimum plasma glucose (Table 2), Change from vehicle ([2]; STZ-treated rats): -220 mg/dL
minimum plasma glucose (Table 2), Sildenafil group ([2]; STZ-treated rats): 583 mg/dL
statistical significance (p) of effect of Sildenafil on average glucose ([2]; STZ-treated rats): < 0.05
effect on average plasma glucose (in words) ([2]; control and STZ-treated rats, decrease greater in STZ-treated animals): lowered average glucose in both types of rat
statistical significance (p) of effect of Sildenafil on average glucose ([2]; control rats): < 0.01
statistical significance (p) of effect of sildenafil on minimum glucose levels ([2]; control rats, no statistically significant effect): > 0.10
